Legend:
ROCK I (AA 6-553) = ROCK I (AA 6-553) (Homo sapiens, UniProt Q13464); assay: ROCK inhibition assay, coupled enzyme system ("Enzyme"); assay type: biochemical; details: enzyme-linked assay; average Ki if more than one determined
Experimental: Reactions were carried out in a solution containing 100 mM HEPES (pH 7.5), 10 mM MgCl2, 25 mM NaCl, 2 mM DTT and 1.5% DMSO.
If more than one value of Ki has been determined, the average Ki is indicated. If no value is indicated, then the Ki was not determined.

PKA = PKA (Homo sapiens, UniProt P17612); assay: PKA inhibition assay, coupled enzyme; assay type: biochemical; details: average Ki if more than one determined
Experimental: Compounds were screened for their ability to inhibit PKA using a standard coupled enzyme assay (Fox et al., Protein Sci, 1998, 7, 2249). Assays were carried out in a mixture of 100 mM HEPES (pH 7.5), 10 mM MgCl2, 25 mM NaCl, 1 mM DTT and 3% DMSO. Final substrate concentrations in the assay were 50 μM ATP (Sigma Chemicals) and 80 μM peptide (Kemptide, American Peptide, Sunnyvale, Calif.). Assays were carried out at 30° C. and 18 nM PKA. Final concentrations of the components of the coupled enzyme system were 2.5 mM phosphoenolpyruvate, 300 μM NADH, 30 μg/ml pyruvate kinase and 10 μg/ml lactate dehydrogenase.
An assay stock buffer solution was prepared containing all of the reagents listed above, with the exception of ATP, and the test compound of the present invention. […] The plate was preincubated for 10 minutes at 30° C. and the reaction initiated by addition of 5 μl of ATP (final concentration 50 μM). Initial reaction rates were determined with a Molecular Devices SpectraMax Plus plate reader over a 15 minute time course. IC50 and Ki data were calculated from non-linear regression analysis using the Prism software package (GraphPad Prism version 3.0a for Macintosh, GraphPad Software, San Diego Calif., USA).

Sequence of ROCK I (AA 6-553) (Q13464 6-553, species assumed): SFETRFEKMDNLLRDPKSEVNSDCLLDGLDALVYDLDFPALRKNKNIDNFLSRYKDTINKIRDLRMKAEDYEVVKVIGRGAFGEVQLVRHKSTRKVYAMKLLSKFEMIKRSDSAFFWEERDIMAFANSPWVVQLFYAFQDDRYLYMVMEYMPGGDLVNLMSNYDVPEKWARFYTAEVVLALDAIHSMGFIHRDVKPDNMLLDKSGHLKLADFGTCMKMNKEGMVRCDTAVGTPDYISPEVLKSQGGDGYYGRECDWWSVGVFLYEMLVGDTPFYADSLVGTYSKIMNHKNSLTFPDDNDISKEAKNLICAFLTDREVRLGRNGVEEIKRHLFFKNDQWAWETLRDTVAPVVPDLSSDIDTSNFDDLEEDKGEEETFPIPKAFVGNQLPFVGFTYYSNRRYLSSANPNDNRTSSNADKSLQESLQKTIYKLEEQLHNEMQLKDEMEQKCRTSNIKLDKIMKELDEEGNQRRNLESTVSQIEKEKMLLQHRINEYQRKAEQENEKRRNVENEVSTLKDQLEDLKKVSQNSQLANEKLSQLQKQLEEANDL

SMILES | Ki (ROCK I (AA 6-553)) [nM] | Ki (PKA) [nM]
O=C(Cc1ccccc1F)Nc1nc(-c2c[nH]c3ncccc23)cs1 [I-3] | < 500 | < 500
O=C(Cc1ccc(F)cc1)Nc1nc(-c2c[nH]c3ncccc23)cs1 [I-4] | < 500 | < 500
O=C(Cc1ccc(F)cc1F)Nc1nc(-c2c[nH]c3ncccc23)cs1 [I-6] | < 500 | < 500
O=C(CCc1ccccc1)Nc1nc(-c2c[nH]c3ncccc23)cs1 [I-7] | < 500 | < 500
CC(C)(C)OC(=O)N1CCC(CCCOc2cccc(CC(=O)Nc3nc(-c4c[nH]c5ncccc45)cs3)c2)CC1 [I-9] | < 500 | 500 to 5000
CS(=O)(=O)Oc1cccc(CC(=O)Nc2nc(-c3c[nH]c4ncccc34)cs2)c1 [I-10] | < 500 | < 500
O=C(Cc1cc2c(cc1Cl)OCO2)Nc1nc(-c2c[nH]c3ncccc23)cs1 [I-13] | < 500 | < 500
COc1ccc(CC(=O)Nc2nc(-c3c[nH]c4ncccc34)cs2)c(Cl)c1 [I-18] | < 500 | < 500
COc1cccc(CC(=O)Nc2nnc(-c3c[nH]c4ncccc34)s2)c1 [I-21] | < 500 | < 500
O=C(Cc1ccc(F)cc1F)Nc1nnc(-c2c[nH]c3ncccc23)s1 [I-22] | < 500 | < 500
O=C(Cc1ccccc1F)Nc1nnc(-c2c[nH]c3ncccc23)s1 [I-23] | < 500 | < 500
c1cnc2[nH]cc(-c3csc(NC4CC4)n3)c2c1 [II-3] | 500 to 5000 | 500 to 5000
O=C(Cc1cccc(S(=O)(=O)NC2CC2)c1)Nc1nc(-c2c[nH]c3ncccc23)cs1 [II-6] | < 500 | < 500

Second part, the compound after the results:

Ki (ROCK I (AA 6-553)) [nM] | Ki (PKA) [nM] | SMILES
< 500 | < 500 | O=C(Cc1ccc(F)cc1)Nc1nnc(-c2c[nH]c3ncccc23)s1 [II-7]
< 500 | < 500 | O=C(Cc1ccccc1)Nc1nnc(-c2c[nH]c3ncccc23)s1 [II-8]
< 500 | < 500 | CS(=O)(=O)Nc1cccc(CC(=O)Nc2nnc(-c3c[nH]c4ncccc34)s2)c1 [II-9]
< 500 | 500 to 5000 | O=C(Cc1cc2c(cc1Cl)OCO2)Nc1nnc(-c2c[nH]c3ncccc23)s1 [II-10]
< 500 | < 500 | O=C(Cc1ccccc1F)Nc1nc(-c2c[nH]c3nccc(F)c23)cs1 [II-11]
< 500 | < 500 | O=C(Cc1ccc(F)cc1)Nc1nc(-c2c[nH]c3nccc(F)c23)cs1 [II-12]
< 500 | < 500 | O=C(Cc1ccc(F)cc1F)Nc1nc(-c2c[nH]c3nccc(F)c23)cs1 [II-13]
< 500 | 500 to 5000 | CS(=O)(=O)Nc1cccc(CC(=O)Nc2nc(-c3c[nH]c4nccc(F)c34)cs2)c1 [II-14]
< 500 | < 500 | O=C(CCc1ccccc1)Nc1nc(-c2c[nH]c3nccc(F)c23)cs1 [II-15]
< 500 | < 500 | O=C(Cc1ccccc1)Nc1nc(-c2c[nH]c3nccc(F)c23)cs1 [II-16]
< 500 | 500 to 5000 | O=C(Cc1cccc(OCCCC2CCNCC2)c1)Nc1nc(-c2c[nH]c3nccc(F)c23)cs1 [II-17]
< 500 | < 500 | O=C(Cc1ccc2c(c1)OCO2)Nc1nc(-c2c[nH]c3nccc(F)c23)cs1 [II-18]
< 500 | < 500 | COc1cccc(CC(=O)Nc2nc(-c3c[nH]c4nccc(F)c34)cs2)c1 [II-19]
< 500 | < 500 | O=C(Cc1cc2c(cc1Cl)OCO2)Nc1nc(-c2c[nH]c3nccc(F)c23)cs1 [II-20]
< 500 | – | COc1cccc(CNC(=O)c2csc(-c3c[nH]c4ncccc34)n2)c1 [II-21]
< 500 | – | O=C(Cc1cccc(OCCCC2CCNCC2)c1)Nc1nnc(-c2c[nH]c3ncccc23)s1 [II-22]
< 500 | < 500 | COc1cccc(CC(=O)Nc2cc(-c3c[nH]c4ncccc34)cs2)c1 [II-23]
< 500 | 500 to 5000 | CCN(CC)S(=O)(=O)c1cccc(CC(=O)Nc2nc(-c3c[nH]c4ncccc34)cs2)c1 [II-24]

— US7514448B2, “Azaindoles useful as inhibitors of rock and other protein kinases” (Vertex Pharmaceuticals Incorporated, priority 2004, dated 2009)
